Assay in all cases: inhibition of tumour cell growth, NCI panel, 48 h
The test system of test [1] is SNB-75 CNS.
Test [2] has as its system A498 renal.
Test [3] deals with MCF7 breast.
Test [4] concerns SF-268 CNS.
Test [5] deals with HOP-62 NSCLC.
Test [6] concerns EKVX NSCLC.
Test [7] deals with HS 578T breast.
For test [8], the system named is HCT-116 colon.
For test [9], the system named is RXF 393 renal.
Test [10] has as its system HT29 colon.

SMILES strings stand for the structures.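 Dose response: 5 concentrations. Exposure: 48 h. Format: 96-well plates. Endpoint: linear interpolation; highest concentration if not reached. GI50 marks 50% less growth. TGI: total growth inhibition.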 Bounds are passed on as bounds.

For the compound `COC(=O)C1=Nc2ccc(F)cc2/C1=C/c1sc(=S)[nH]c1O`, the GI50 in [1] is 0.0301 µM; in test [2], 0.202 µM; in test [3], 0.26 µM; in test [4], 0.575 µM; in test [5], 0.18 µM; in test [6] it was 0.987 µM. Moreover, the GI50 is 0.0518 µM in test [7], 0.0468 µM in test [8], 0.0762 µM in test [9] and 0.559 µM in test [10]. For the same compound, the TGI in [1] is 11.8 µM; in [2], 0.942 µM; in [3], 15 µM; in [4], 29.9 µM; in test [5], 18.7 µM; in test [6] it was above 100 µM. Moreover, the TGI came to 21.6 µM in [7], 16.7 µM in test [8], 4.1 µM in [9] and 11.9 µM in test [10].
On to `Cc1cc2c(cc1C)[n+](=O)c(C(=O)/C=C/c1ccccc1[N+](=O)[O-])c(C)n2[O-]`, for which the TGI in [1] is 41.1 µM; in test [2] it was 91.8 µM; in [3] it was above 46.4 µM; in test [4], 74.9 µM; in test [5], above 84.1 µM; in [6], 99.1 µM. The TGI in test [7] is above 77.2 µM; in [8], above 100 µM; in test [9] it was 46.2 µM; in test [10], above 100 µM.
Take `C=CC[PH+](c1ccccc1)c1ccccc1.C=CC[PH+](c1ccccc1)c1ccccc1.[Pt+2].[S-]c1ncccn1.[S-]c1ncccn1`: the GI50 in [1] is 8.25 µM; in test [2], 11.5 µM; in [3], 4.8 µM; in test [4] it was 25.9 µM; in test [5], 39.5 µM; in test [6], 26.9 µM. Besides, the GI50 in [7] is 23 µM; in [8] it was 2.17 µM; in test [9] it was 4.67 µM; in [10], 13.5 µM. Besides, the TGI in [1], in test [2], in test [3], in test [4], in test [5] and in [6] was above 100 µM throughout. For the same compound, the TGI is above 100 µM in test [7], 4.88 µM in test [8], 18.3 µM in test [9] and above 100 µM in test [10].
On to `CCc1ccc(C2=NN(c3ccc(S(C)(=O)=O)cc3)C(=O)CC2)cc1`, for which the GI50 in test [1] is 1.31 µM; in test [2], 0.322 µM; in test [3] it was 3.04 µM; in test [4], 3.11 µM; in test [5], 2.68 µM; in test [6], 4.15 µM. Further, the GI50 in test [7] is 0.977 µM; in test [8], 0.942 µM; in [9], 2.05 µM; in [10], 0.411 µM. For the same compound, the TGI in [1] was 6.93 µM; in test [2] it was 4.46 µM; in test [3], above 91.6 µM; in test [4], above 100 µM; in test [5], above 30.8 µM; in test [6] it was 98.4 µM. Further, the TGI in [7] is 7.77 µM; in test [8] it was above 39.2 µM; in [9], 15.4 µM; in test [10], 13.4 µM.
As to `Cn1c(CC(O)c2nc3ccccc3n2C)nc2ccccc21` (stereo not drawn), the TGI was above 100 µM in test [1]; above 51.1 µM in test [2]; above 47.2 µM in test [3]; above 28.9 µM in [4]; above 19.1 µM in [5]; above 100 µM in test [6]. For the same compound, the TGI in [7] was above 24.2 µM; in test [8] it was above 34.9 µM; in test [9] it was above 39.4 µM; in [10], above 54.3 µM.
Consider `C=CC(C)(O)CCC1C(=C)C(O)CC2C(C)(C)CCCC12C` (stereo not drawn), for which the TGI in [1] is above 100 µM; in test [2], 33.3 µM; in test [3], 60 µM; in test [4] it was 38 µM; in test [5], 43.6 µM; in test [6], 36.8 µM. Also, the TGI in test [7] stood at 50.3 µM; in test [8], 31.8 µM; in test [9] it was 29.5 µM; in [10] it was 33 µM.
Regarding `Cc1ccc(O)cc1Nc1ccnc2cc(-c3ccccn3)ccc12`, the GI50 was 0.405 µM in test [1]; 1.83 µM in test [2]; 2.71 µM in [3]; 1.71 µM in [4]; 3.48 µM in test [5]; 3.61 µM in [6]. The GI50 in test [7] was 2.45 µM; in test [8] it was 3.49 µM; in test [9], 1.95 µM; in test [10], 3.9 µM. Moreover, the TGI in test [1] was 3.43 µM; in test [2] it was 5.04 µM; in test [3], 6.07 µM; in [4], 5.88 µM; in test [5] it was 8.59 µM; in test [6], 17.3 µM. Besides, the TGI in [7] amounted to 9.03 µM; in test [8], 6.96 µM; in test [9], 5.37 µM; in test [10], 7.81 µM.
For `COc1cc(OC)c(/C=C/C(=O)c2c(N)cc(OC)cc2OC)c(OC)c1`, the GI50 in test [1] was 0.338 µM; in [2], 0.463 µM; in test [3], 0.395 µM; in test [4], 0.609 µM; in test [5] it was 0.724 µM; in test [6], 2.25 µM. The GI50 in [7] is 2.42 µM; in test [8] it was 0.384 µM; in test [9], 0.623 µM; in test [10], 3.3 µM. The TGI in [3] was above 100 µM; in test [4] it was above 100 µM; in test [5], above 100 µM; in [6] it was above 100 µM; in test [7] it was above 82 µM; in test [8] it was above 100 µM. Besides, the TGI in test [9] is 4.7 µM; in test [10], 14.6 µM.
For `Cc1cc(-c2ccco2)cc(C)c1/C=C/c1cncc(-c2nn[nH]n2)c1`, the GI50 in test [1], in test [2], in test [3], in [4], in test [5] and in test [6] was above 25 µM each time. The GI50 in [7], in test [8], in [9] and in [10] was above 25 µM throughout. For the same compound, the TGI in [1], in test [2], in test [3], in [4], in test [5] and in [6] was above 25 µM in each case. The TGI in [7], in [8], in [9] and in test [10] was above 25 µM in each case.
Regarding `COc1cc2c(cc1OC)C(SC)C(=O)N(Cc1cccc(OC)c1OC)CC2` (stereo not drawn), the TGI in [1] is above 100 µM; in test [2], above 54.9 µM; in test [3], above 42.6 µM; in test [4], above 100 µM; in [5], above 45.8 µM; in test [6] it was above 100 µM. The TGI in [7] is above 24.6 µM; in test [8], above 70.2 µM; in [9], above 48.1 µM; in test [10], 17.1 µM.
In the case of `CCC1=C(c2ccc(OC)cc2)CC[C@]2(CCNC2=O)[C@@H]1C`, the TGI in test [1] was above 95.6 µM; in test [2], above 100 µM; in test [3], 46.7 µM; in test [4], above 100 µM; in test [5] it was above 100 µM; in [6], above 86.7 µM. Moreover, the TGI in test [7] was 76.2 µM; in test [8] it was 52.6 µM; in [9], above 100 µM; in [10] it was 59.6 µM.
`CCOC(=O)C1=C(C)N(Cc2ccc(Cl)cc2Cl)[C@]2(C#N)C(O)=C(Cl)C(Cl)=C(O)[C@]12C#N`: the GI50 was 32.2 µM in [1]; above 100 µM in [2]; 39.3 µM in test [3]; 42.1 µM in [4]; above 100 µM in test [5]; above 100 µM in test [6]. Further, the GI50 in [7] was above 100 µM; in test [8] it was 34.7 µM; in test [9], 30.6 µM; in test [10], above 100 µM. The TGI in test [1] is 86.4 µM; in test [2], above 100 µM; in [3] it was above 100 µM; in test [4], above 100 µM; in test [5], above 100 µM; in test [6], above 100 µM. For the same compound, the TGI in [7] was above 100 µM; in [8] it was above 100 µM; in test [9], 89.1 µM; in [10], above 100 µM.

These data come from PubChem BioAssay (NCI).
